Values after ≈ are worked out from the molar mass of the structure shown.
Columns and labels:
[1] = Hemolytic activity in human RBC assessed as hemolysis incubated for 1 hr by CO-ADD method; assay type: ADME, cell-based, Erythrocyte; conditions: red blood cells (erythrocytes)
[2] = Hemolytic activity in sheep RBC assessed as hemolysis at 50 microg/ml incubated for 2 hrs; assay type: ADME, cell-based, Ovis aries, Erythrocyte; conditions: red blood cells (erythrocytes), at 50 µg/mL, read-out: Activity
Acinetobacter baumannii = assay: Antimicrobial activity against Acinetobacter baumannii ATCC 19606 assessed as growth inhibition incubated for 18 hrs; assay type: functional
[3] = Hemolytic activity in sheep RBC assessed as hemolysis at 5 microg/ml incubated for 2 hrs by CO-ADD method; assay type: ADME, cell-based, Ovis aries, Erythrocyte; conditions: red blood cells (erythrocytes), at 5 µg/mL, read-out: Activity
Clostridioides difficile [4] = assay: Antibacterial activity against Clostridioides difficile ATCC 700057 assessed as inhibition of growth visually preincubated for 2 to 4 hrs measured after 48 hrs by CLSI method; assay type: functional; conditions: time hrs <=52
[5] = Cytotoxicity against human HEK-293 cells incubated for 23 hrs by CO-ADD method; assay type: cell-based, HEK293
Enterococcus faecalis [6] = assay: Antibacterial activity against Enterococcus faecalis ATCC 29212 assessed as inhibition of growth visually by CLSI method; assay type: functional
Staphylococcus aureus [7] = assay: Antibacterial activity against Staphylococcus aureus ATCC 29213 assessed as inhibition of growth visually by CLSI method; assay type: functional
Staphylococcus aureus [8] = assay: Antibacterial activity against vancomycin intermediate susceptibility Staphylococcus aureus Mu50 assessed as inhibition of growth visually by CLSI method; assay type: functional
[9] = Cytotoxicity against human HEK-293 cells assessed as maximal inhibition at <= 32 ug/ml incubated for 23 hrs by CO-ADD method; assay type: cell-based, HEK293; conditions: dose <=32 µg/ml, read-out: Imax
Escherichia coli [10] = assay: Antibacterial activity against Escherichia coli ATCC 10418 assessed as inhibition of growth visually by CLSI method; assay type: functional
Clostridioides difficile [11] = assay: Antibacterial activity against Clostridioides difficile NSW 132 (RT027) assessed as inhibition of growth visually preincubated for 2 to 4 hrs measured after 48 hrs by CLSI method; assay type: functional; conditions: time hrs <=52
Enterococcus faecalis [12] = assay: Antibacterial activity against vancomycin-resistant Enterococcus faecalis ATCC 51299 assessed as inhibition of growth visually by CLSI method; assay type: functional
Escherichia coli [13] = assay: Antimicrobial activity against Escherichia coli ATCC 25922 assessed as growth inhibition incubated for 18 hrs; assay type: functional
Streptococcus pneumoniae = assay: Antibacterial activity against Streptococcus pneumoniae ATCC 49619 assessed as inhibition of growth visually by CLSI method; assay type: functional
Staphylococcus aureus [14] = assay: Antibacterial activity against methicillin-resistant Staphylococcus aureus NCTC 10442 assessed as inhibition of growth visually by CLSI method; assay type: functional
Candida albicans = assay: Antifungal activity against Candida albicans ATCC 90028 assessed as growth inhibition incubated for 36 hrs; assay type: functional; conditions: 28A ATCC 90028
Klebsiella pneumoniae = assay: Antimicrobial activity against multidrug-resistant Klebsiella pneumoniae ATCC 700603 assessed as growth inhibition incubated for 18 hrs; assay type: functional
Staphylococcus aureus [15] = assay: Antimicrobial activity against methicillin resistant Staphylococcus aureus ATCC 43300 assessed as growth inhibition incubated for 18 hrs; assay type: functional
[16] = Hemolytic activity in human RBC assessed as maximal hemolysis at <= 32 ug/ml incubated for 1 hr by CO-ADD method; assay type: cell-based, Erythrocyte; conditions: red blood cells (erythrocytes), dose <=32 µg/ml, read-out: Activity
Cryptococcus neoformans = assay: Antifungal activity against Cryptococcus neoformans H99 ATCC 208821 assessed as growth inhibition incubated for 36 hrs; assay type: functional; conditions: var. grubii H99 ATCC 208821
Pseudomonas aeruginosa = assay: Antimicrobial activity against Pseudomonas aeruginosa ATCC 27853 assessed as growth inhibition incubated for 18 hrs; assay type: functional

Compound	HC50 at 1 h [1]	hemolysis at 2 h, 50 microg/ml [2]	MIC80 (Acinetobacter baumannii)	hemolysis at 2 h, 5 microg/ml [3]	MIC (Clostridioides difficile [4])	CC50 at 23 h [5]	MIC (Enterococcus faecalis [6])	MIC (Staphylococcus aureus [7])	MIC (Staphylococcus aureus [8])	Emax at 23 h [9]	MIC (Escherichia coli [10])	MIC (Clostridioides difficile [11])	MIC (Enterococcus faecalis [12])	MIC80 (Escherichia coli [13])	MIC (Streptococcus pneumoniae)	MIC (Staphylococcus aureus [14])	MIC80 (Candida albicans)	MIC80 (Klebsiella pneumoniae)	MIC80 (Staphylococcus aureus [15])	MIC80 (Cryptococcus neoformans)	further results
CC(C)CCOc1ccc(-c2ccc(OCc3cn(C[C@@H](CCCCN)NC(=O)[C@@H](CCCNC(=N)N)n4cc(CC5CCCCC5)nn4)nn3)cc2)cc1.Cl.Cl	9.8 µg/mL	57.2%	32 µg/mL	1.4%	16 µg/mL	> 32 µg/mL	8 µg/mL	4 µg/mL	4 µg/mL	25%	32 µg/mL	8 µg/mL	16 µg/mL	8 µg/mL	2 µg/mL	4 µg/mL	1 µg/mL	32 µg/mL	≤ 0.25 µg/mL	> 32 µg/mL	hemolysis at 1 h [16]: 94%; MIC80 (Pseudomonas aeruginosa): 8 µg/mL
COLISTIN											1 µg/mL										MIC=>80 (Acinetobacter baumannii): 0.25 µg/mL; MIC=>80 (Escherichia coli [13]): 0.125 µg/mL; MIC=>80 (Klebsiella pneumoniae): 0.25 µg/mL; MIC=>80 (Pseudomonas aeruginosa): 0.25 µg/mL
CN[C@H](CC(C)C)C(=O)N[C@H]1C(=O)N[C@@H](CC(N)=O)C(=O)N[C@H]2C(=O)N[C@H]3C(=O)N[C@H](C(=O)N[C@H](C(=O)O)c4cc(O)cc(O)c4-c4cc3ccc4O)[C@H](O)c3ccc(c(Cl)c3)Oc3cc2cc(c3O[C@@H]2O[C@H](CO)[C@@H](O)[C@H](O)[C@H]2O[C@H]2C[C@](C)(N)[C@H](O)[C@H](C)O2)Oc2ccc(cc2Cl)[C@H]1O [VANCOMYCIN]					1 µg/mL (≈ 0.69 µM)		2 µg/mL (≈ 1.38 µM)		8 µg/mL (≈ 5.52 µM)		> 8 µg/mL	0.5 µg/mL (≈ 0.345 µM)	> 8 µg/mL						1 µg/mL (≈ 0.69 µM)		
OC(Cn1cncn1)(Cn1cncn1)c1ccc(F)cc1F [FLUCONAZOLE]																	0.125 µg/mL (≈ 0.408 µM)			8 µg/mL (≈ 26.1 µM)	
CC(C)(C)c1ccc(CC(N)C(=O)NC(CCCNC(=N)N)C(=O)Nc2cc(NC(=O)C(CCCNC(=N)N)NC(=O)C(N)Cc3ccc(C(C)(C)C)cc3)cc(C(N)=O)c2)cc1 (stereo not given)	> 100 µg/mL							3.9 µg/mL (≈ 4.48 µM)													
CC(C)CCOc1ccc(-c2ccccc2OCc2cn(C[C@@H](CCCCN)NC(=O)[C@@H](CCCNC(=N)N)n3cc(CC4CCCCC4)nn3)nn2)cc1.Cl.Cl	> 32 µg/mL	63%	4 µg/mL	2.7%	16 µg/mL	> 32 µg/mL	4 µg/mL	4 µg/mL	4 µg/mL	13%	4 µg/mL	16 µg/mL	8 µg/mL	4 µg/mL	1 µg/mL	2 µg/mL	> 32 µg/mL	32 µg/mL	≤ 0.25 µg/mL	> 32 µg/mL	hemolysis at 1 h [16]: 41%; MIC80 (Pseudomonas aeruginosa): 8 µg/mL
CC(C)CCOc1ccccc1-c1ccccc1OCc1cn(C[C@@H](CCCCN)NC(=O)[C@@H](CCCNC(=N)N)n2cc(CC3CCCCC3)nn2)nn1.Cl.Cl	> 32 µg/mL	66.6%	16 µg/mL	2.1%	16 µg/mL	> 32 µg/mL	4 µg/mL	2 µg/mL	4 µg/mL	14%	4 µg/mL	8 µg/mL	8 µg/mL	8 µg/mL	1 µg/mL	2 µg/mL	32 µg/mL	32 µg/mL	≤ 0.25 µg/mL	> 32 µg/mL	hemolysis at 1 h [16]: 56%; MIC80 (Pseudomonas aeruginosa): 16 µg/mL
CC(C)CCOc1cccc(-c2ccc(OCc3cn(C[C@@H](CCCCN)NC(=O)[C@@H](CCCNC(=N)N)n4cc(CC5CCCCC5)nn4)nn3)cc2)c1.Cl.Cl	> 32 µg/mL	40.8%	32 µg/mL	2.1%	32 µg/mL	> 32 µg/mL	4 µg/mL	4 µg/mL	4 µg/mL	43%	16 µg/mL	16 µg/mL	16 µg/mL	32 µg/mL	4 µg/mL	4 µg/mL	16 µg/mL	> 32 µg/mL	≤ 0.25 µg/mL	> 32 µg/mL	hemolysis at 1 h [16]: 88%; MIC80 (Pseudomonas aeruginosa): 32 µg/mL
CC(C)CCOc1cccc(-c2ccccc2OCc2cn(C[C@@H](CCCCN)NC(=O)[C@@H](CCCNC(=N)N)n3cc(CC4CCCCC4)nn3)nn2)c1.Cl.Cl	> 32 µg/mL	72.1%	4 µg/mL	2.6%	16 µg/mL	> 32 µg/mL	2 µg/mL	2 µg/mL	2 µg/mL	28%	2 µg/mL	16 µg/mL	8 µg/mL	8 µg/mL	1 µg/mL	2 µg/mL	32 µg/mL	> 32 µg/mL	≤ 0.25 µg/mL	> 32 µg/mL	hemolysis at 1 h [16]: 38%; MIC80 (Pseudomonas aeruginosa): 8 µg/mL
CCCCCCCCCCCC(=O)N(CCCCCCNC(=O)[C@@H](N)CCCCN)CCCCCCNC(=O)[C@@H](N)CCCCN	860 µg/mL										3.1 µg/mL (≈ 4.74 µM)										MIC (Staphylococcus aureus [15]): 3.1 µg/mL (≈ 4.74 µM)
CC(C)CCOc1ccccc1-c1cccc(OCc2cn(C[C@@H](CCCCN)NC(=O)[C@@H](CCCNC(=N)N)n3cc(CC4CCCCC4)nn3)nn2)c1.Cl.Cl	> 32 µg/mL	38.2%	16 µg/mL	1.4%	16 µg/mL	> 32 µg/mL	4 µg/mL	4 µg/mL	2 µg/mL	36%	4 µg/mL	8 µg/mL	8 µg/mL	2 µg/mL	2 µg/mL	4 µg/mL	16 µg/mL	> 32 µg/mL	≤ 0.25 µg/mL	> 32 µg/mL	hemolysis at 1 h [16]: 81%; MIC80 (Pseudomonas aeruginosa): 2 µg/mL
C[C@@H]1[C@H](O)[C@@H](C)/C=C/C=C/C=C/C=C/C=C/C=C/C=C/[C@H](O[C@@H]2O[C@H](C)[C@@H](O)[C@H](N)[C@@H]2O)C[C@@H]2O[C@](O)(C[C@@H](O)C[C@@H](O)[C@H](O)CC[C@@H](O)C[C@@H](O)CC(=O)O[C@H]1C)C[C@H](O)[C@H]2C(=O)O [AMPHOTERICIN B]																	1.56 µg/mL (≈ 1.69 µM)			1.56 µg/mL (≈ 1.69 µM)	
CC(C)CCOc1ccccc1-c1ccc(OCc2cn(C[C@@H](CCCCN)NC(=O)[C@@H](CCCNC(=N)N)n3cc(CC4CCCCC4)nn3)nn2)cc1.Cl.Cl	> 32 µg/mL	66.4%	4 µg/mL	2%	16 µg/mL	> 32 µg/mL	4 µg/mL	2 µg/mL	4 µg/mL	40%	8 µg/mL	8 µg/mL	16 µg/mL	8 µg/mL	1 µg/mL	4 µg/mL	16 µg/mL	32 µg/mL	≤ 0.25 µg/mL	> 32 µg/mL	hemolysis at 1 h [16]: 82%; MIC80 (Pseudomonas aeruginosa): 8 µg/mL
CCCCCCCCCCCCCCCC1OC2C3CC(C2O1)C(C(=O)NCCNC(=N)N)C3C(=O)NCCNC(=N)N.Cl.Cl (stereo not given)						> 50 µg/mL															MIC (Staphylococcus aureus [15]): 1 µg/mL
CC/C(=C(\c1ccccc1)c1ccc(OCCN(C)C)cc1)c1ccccc1 [TAMOXIFEN]						9 µg/mL (≈ 24.2 µM)															
CC(C)CCOc1ccc(-c2cccc(OCc3cn(C[C@@H](CCCCN)NC(=O)[C@@H](CCCNC(=N)N)n4cc(CC5CCCCC5)nn4)nn3)c2)cc1.Cl.Cl	> 32 µg/mL	66.5%	32 µg/mL	2.3%	16 µg/mL	> 32 µg/mL	4 µg/mL	4 µg/mL	2 µg/mL	18%	32 µg/mL	16 µg/mL	8 µg/mL	8 µg/mL	2 µg/mL	8 µg/mL	8 µg/mL	32 µg/mL	≤ 0.25 µg/mL	> 32 µg/mL	hemolysis at 1 h [16]: 102%; MIC80 (Pseudomonas aeruginosa): 16 µg/mL
